# Measured values published in patent US7383788B2, “Enhanced feeding and growth rates of aquatic animals fed an astaxanthin product derived from marigold extract” (DSM IP Assets B.V., priority 2002, dated 2008).
# Legend:
# [1] = tested on: Rainbow trout; experiment: Field trial on rainbow trout in a commercial fish farm (pigmentation and growth); format: in vivo; details: 90 ppm in feed
# Experimental: A field trial with Rainbow Trout was done to assess pigmentation and growth in a commercial fish farm. The fish were grown in concrete raceways where fish were stocked in two sections of different raceways. In one section we had the control treatment which was fed with feed containing synthetic astaxanthin at 90 ppm. […] The water temperature was constant at 16° C. throughout the test as was the flow rate at 60 1/sec. Fish were fed to satiate, feed consumed was weighed for each treatment and conversion rates calculated based on the initial and final biomass.
# [2] = tested on: Penaeid shrimp (Litopenaeus vannamei); experiment: Field trial on a commercial shrimp farm using several pigment sources to evaluate production; format: in vivo
# From the text: Penaeid shrimp (Litopenaeus vannamei) with an average initial weight of 0.96 gr were stocked at a density of 25.04 individuals/square meter in […]. There were three ponds for each treatment to give a total of 12 ponds. The size of the ponds differed slightly as shown in Table 3 where a summary of the yields obtained after harvesting are also presented. All ponds were fed with the same diets varying only in the type of pigment used and keeping one as a control without pigment addition. Weight of feed supplied to each pond was recorded daily and the feed conversion ratio calculated after harvesting. Culture of the shrimp was done following normal commercial procedures and doing exactly the same operations in all ponds.
smiles,measurement,setting,value
"CC1=C(/C=C/C(C)=C/C=C/C(C)=C/C=C/C=C(C)/C=C/C=C(C)/C=C/C2=C(C)C(=O)[C@@H](O)CC2(C)C)C(C)(C)C[C@H](O)C1=O [Synthetic astaxanthin, astaxanthin]",Average Wt gain,[1],0.188 kg
same,Average end Wt,[1],0.337 kg
same,Conv. Ratio,[1]; based on initial and final biomass,1.56
same,average weight gain,[1]; end of feeding trial,188 grams
same,Feed consumed,[1]; fed to satiate,125.2 kg
same,Final Biomass,"[1]; fed to satiate, 16° C.",154.6 kg
same,Harvest Kg/Hect,[2]; 25 ppm pigment in feed,"1,283 Kg/Hect"
same,% Survival,"[2]; 25 ppm pigment in feed, at harvest after 92-100 days",66.5%
same,Feed Conv Ratio,"[2]; 25 ppm pigment in feed, calculated after harvesting",1.62
same,Harvest Kg,"[2]; 25 ppm pigment in feed, three ponds","18,729 Kg"
same,survival rate (in words),[2]; after harvesting,low survival rate
